Reference: paper PMC11881561 (Antimicrobial Agents and Chemotherapy, 2025)
≈ marks a conversion by molar mass, not a printed value.

Tests used:
KPC-2^D179Y [1] = biological target: T1, KPC-2^D179Y (Klebsiella pneumoniae, UniProt Q9F663, D178Y); test: Inhibition kinetics (CENTA hydrolysis, jump dilution), KPC-2 D179Y; type: biochemical; details: KPC-2 D179Y
Description: (§1) Measurements to determine kinetic parameters for hydrolysis, and kinetic parameters for inhibition were performed at ambient temperature in PBS (pH 7.4) containing 0.1 mg/mL bovine serum albumin, using a PowerWaveXS plate reader (BioTek).
(§2) Second-order rate constants (k2/K) denoting the inactivation efficiency of BLIs were determined by continuously measuring CENTA (100 µM) hydrolysis ([28]) in the presence of various concentrations of BLI. Progress curves were fit to equation 3 using GraphPad Prism, where Ai and A0 are the measured and basal absorbance, vi and vs are initial and final velocity, and t is time in seconds. k2/K was derived with equation 4. Koff was determined by the jump dilution method ([24]). Kd was estimated from the ratio between koff and k2/K.
(§3) (3) Ai=A0+vst(vi-vs)[1-e^-(kobs)t/kobs]
(§4) (4) kobs=k-2+(k2/KI)[I]/1+[S]/KM

KPC-2^V240G [2] = biological target: T2, KPC-2^V240G (Klebsiella pneumoniae, UniProt Q9F663, V239G); test: Inhibition kinetics (CENTA hydrolysis, jump dilution), KPC-2 V240G; type: biochemical
Description: as §1, §2, §3, §4

KPC-2^D179Y/T243M [3] = biological target: T3, KPC-2^D179Y/T243M (Klebsiella pneumoniae, UniProt Q9F663, D178Y/T242M); test: Inhibition kinetics (CENTA hydrolysis, jump dilution), KPC-2 D179Y/T243M; type: biochemical; details: KPC-2 D179Y/T243M
Description: as §1, §2, §3, §4

KPC-3 WT [4] = biological target: T4, KPC-3 WT (Klebsiella pneumoniae, UniProt Q9F663, H272Y); test: Inhibition kinetics (CENTA hydrolysis, jump dilution), KPC-3 wt; type: biochemical
Description: as §1, §2, §3, §4

KPC-2 WT [5] = biological target: T5, KPC-2 WT (Klebsiella pneumoniae, UniProt Q9F663); type: biochemical
Description: as §1, §2, §3, §4

KPC-3^D179Y [6] = biological target: T6, KPC-3^D179Y (Klebsiella pneumoniae, UniProt Q9F663, D178Y/H272Y); test: Inhibition kinetics (CENTA hydrolysis, jump dilution), KPC-3 D179Y; type: biochemical
Description: as §1, §2, §3, §4

KPC-3^D179Y/T243M [7] = biological target: T7, KPC-3^D179Y/T243M (Klebsiella pneumoniae, UniProt Q9F663, D178Y/H272Y/T242M); test: Inhibition kinetics (CENTA hydrolysis, jump dilution), KPC-3 D179Y/T243M; type: biochemical
Description: as §1, §2, §3, §4

KPC-3^V240G [8] = biological target: T8, KPC-3^V240G (Klebsiella pneumoniae, UniProt Q9F663, H272Y/V239G); test: Inhibition kinetics (CENTA hydrolysis, jump dilution), KPC-3 V240G; type: biochemical
Description: as §1, §2, §3, §4

[9] = system: E. coli control strain lacking a β-lactamase; test: microbe, parasite or virus in culture; type: cell-based; details: Escherichia coli, no KPC expressed, BLIs at fixed 4 μg/mL
[10] = system: engineered E. coli strain expressing KPC-2^V240G; test: microbe, parasite or virus in culture; type: cell-based; details: Escherichia coli, BLIs at fixed 4 μg/mL
[11] = system: engineered E. coli strain expressing KPC-2^D179Y; test: microbe, parasite or virus in culture; type: cell-based; details: Escherichia coli, BLIs at fixed 4 μg/mL
[12] = system: engineered E. coli strain expressing KPC-3^D179Y/T243M; test: microbe, parasite or virus in culture; type: cell-based; details: Escherichia coli, BLIs at fixed 4 μg/mL
[13] = system: E. coli strains expressing KPC-2^D179Y or KPC-2^D179Y/T243M; test: microbe, parasite or virus in culture; type: cell-based; details: Escherichia coli
[14] = system: engineered E. coli strain expressing KPC-2^D179Y/T243M; test: microbe, parasite or virus in culture; type: cell-based; details: Escherichia coli, BLIs at fixed 4 μg/mL
[15] = system: engineered E. coli strain expressing KPC-3 wt; test: microbe, parasite or virus in culture; type: cell-based; details: Escherichia coli; KPC-3 wt strain; BLIs at fixed 4 μg/mL
[16] = system: engineered E. coli strain expressing KPC-3^D179Y; test: microbe, parasite or virus in culture; type: cell-based; details: Escherichia coli, BLIs at fixed 4 μg/mL
[17] = system: engineered E. coli strain expressing KPC-3^V240G; test: microbe, parasite or virus in culture; type: cell-based; details: Escherichia coli, BLIs at fixed 4 μg/mL
[18] = system: engineered E. coli strain expressing KPC-2 wt; test: microbe, parasite or virus in culture; type: cell-based; details: Escherichia coli; KPC-2 wt strain; BLIs at fixed 4 μg/mL
KPC-2^V240G [19] = biological target: T2, KPC-2^V240G; type: biochemical
KPC-2^D179Y [20] = biological target: T1, KPC-2^D179Y; test: β-lactam hydrolysis kinetics, purified KPC-2 D179Y; type: biochemical; details: substrate hydrolysis by KPC-2 D179Y
Description: as §1
(§5) Assays to determine Michaelis-Menten kinetic parameters were performed by mixing variable amounts of enzymes (depending on the enzyme-substrate pair), with serial dilutions of different BL substrates and continuously monitoring the reduction in absorbance associated with BL hydrolysis ([28], [36], [40], [41]). Kinetic parameters were determined by plotting initial rates of hydrolysis (v) as a function of substrate concentration [S] and fitting the data to equation 1 using GraphPad Prism,
(§6) (1) v=[Et]×kcat×[S]/KM+[S]
(§7) where [Et] is the enzyme concentration, kcat the turnover number and KM the Michaelis constant.

KPC-3^D179Y [21] = biological target: T6, KPC-3^D179Y; test: β-lactam hydrolysis kinetics, purified KPC-3 D179Y; type: biochemical; details: substrate hydrolysis by KPC-3 D179Y
Description: as §1, §5, §6, §7

KPC-2^D179Y/T243M [22] = biological target: T3, KPC-2^D179Y/T243M; test: β-lactam hydrolysis kinetics, purified KPC-2 D179Y/T243M; type: biochemical; details: substrate hydrolysis by KPC-2 D179Y/T243M
Description: as §1, §5, §6, §7

KPC-3^V240G [23] = biological target: T8, KPC-3^V240G; type: biochemical
KPC-3 WT [24] = biological target: T4, KPC-3 WT; type: biochemical; details: substrate hydrolysis by KPC-3 WT
KPC-2 WT [25] = biological target: T5, KPC-2 WT; details: substrate hydrolysis by KPC-2 WT
KPC-3^D179Y/T243M [26] = biological target: T7, KPC-3^D179Y/T243M; test: β-lactam hydrolysis kinetics, purified KPC-3 D179Y/T243M; type: biochemical; details: substrate hydrolysis by KPC-3 D179Y/T243M
Description: as §1, §5, §6, §7

T5 sequence (Q9F663 25-293 limits assumed): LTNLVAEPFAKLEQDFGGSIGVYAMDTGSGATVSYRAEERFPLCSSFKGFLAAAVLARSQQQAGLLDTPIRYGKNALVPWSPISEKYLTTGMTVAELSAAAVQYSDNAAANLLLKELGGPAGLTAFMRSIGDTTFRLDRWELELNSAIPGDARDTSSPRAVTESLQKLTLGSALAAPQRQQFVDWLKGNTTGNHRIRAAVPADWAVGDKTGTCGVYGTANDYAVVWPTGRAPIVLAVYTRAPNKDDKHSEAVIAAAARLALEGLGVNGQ
T8 sequence (Q9F663 27-293 V239G/H272Y): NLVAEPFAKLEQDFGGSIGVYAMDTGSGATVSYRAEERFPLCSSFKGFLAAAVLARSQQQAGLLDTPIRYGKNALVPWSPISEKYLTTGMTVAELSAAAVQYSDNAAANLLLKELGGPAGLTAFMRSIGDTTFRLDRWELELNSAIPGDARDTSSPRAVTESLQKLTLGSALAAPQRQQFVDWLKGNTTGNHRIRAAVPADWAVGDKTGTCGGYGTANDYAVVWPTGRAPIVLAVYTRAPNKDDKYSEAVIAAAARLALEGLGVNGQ
T1 sequence (Q9F663 25-293 D178Y): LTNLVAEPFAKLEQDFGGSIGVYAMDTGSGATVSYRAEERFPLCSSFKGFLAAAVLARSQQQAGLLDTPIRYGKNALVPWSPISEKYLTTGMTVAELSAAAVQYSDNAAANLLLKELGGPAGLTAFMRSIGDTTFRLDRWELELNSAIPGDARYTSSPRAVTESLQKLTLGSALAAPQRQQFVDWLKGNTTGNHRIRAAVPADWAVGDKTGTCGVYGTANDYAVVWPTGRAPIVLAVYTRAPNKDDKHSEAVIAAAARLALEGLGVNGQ
T3 sequence (Q9F663 25-293 D178Y/T242M): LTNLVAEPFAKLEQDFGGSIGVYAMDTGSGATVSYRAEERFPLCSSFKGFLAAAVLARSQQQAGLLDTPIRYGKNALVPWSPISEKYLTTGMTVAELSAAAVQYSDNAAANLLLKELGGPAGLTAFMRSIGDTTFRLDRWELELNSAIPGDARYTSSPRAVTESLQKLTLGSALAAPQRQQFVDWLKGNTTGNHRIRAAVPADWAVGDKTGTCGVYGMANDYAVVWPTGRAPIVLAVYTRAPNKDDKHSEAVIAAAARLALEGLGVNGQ
T2 sequence (Q9F663 25-293 V239G): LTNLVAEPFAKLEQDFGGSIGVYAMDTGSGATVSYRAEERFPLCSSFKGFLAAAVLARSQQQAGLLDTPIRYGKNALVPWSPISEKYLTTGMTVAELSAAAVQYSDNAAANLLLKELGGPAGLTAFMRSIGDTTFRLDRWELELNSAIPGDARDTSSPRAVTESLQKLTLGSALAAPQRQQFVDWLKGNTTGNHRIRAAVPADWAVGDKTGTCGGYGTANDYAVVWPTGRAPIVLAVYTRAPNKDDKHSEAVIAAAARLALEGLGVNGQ
T4 sequence (Q9F663 27-293 H272Y): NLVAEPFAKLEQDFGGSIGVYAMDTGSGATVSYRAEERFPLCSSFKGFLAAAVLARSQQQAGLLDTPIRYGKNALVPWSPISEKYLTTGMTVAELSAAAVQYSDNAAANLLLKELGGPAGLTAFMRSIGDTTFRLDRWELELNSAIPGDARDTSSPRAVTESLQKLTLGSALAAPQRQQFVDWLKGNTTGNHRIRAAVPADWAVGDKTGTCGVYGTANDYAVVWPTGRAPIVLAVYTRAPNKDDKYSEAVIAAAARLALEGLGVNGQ
T7 sequence (Q9F663 27-293 D178Y/T242M/H272Y): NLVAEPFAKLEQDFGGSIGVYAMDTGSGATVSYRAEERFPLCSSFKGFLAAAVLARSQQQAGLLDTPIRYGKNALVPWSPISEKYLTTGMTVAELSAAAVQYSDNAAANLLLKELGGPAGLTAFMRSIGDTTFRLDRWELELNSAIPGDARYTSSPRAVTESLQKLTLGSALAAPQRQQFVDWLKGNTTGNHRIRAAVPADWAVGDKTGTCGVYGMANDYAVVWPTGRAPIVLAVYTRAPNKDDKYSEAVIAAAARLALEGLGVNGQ
T6 sequence (Q9F663 27-293 D178Y/H272Y): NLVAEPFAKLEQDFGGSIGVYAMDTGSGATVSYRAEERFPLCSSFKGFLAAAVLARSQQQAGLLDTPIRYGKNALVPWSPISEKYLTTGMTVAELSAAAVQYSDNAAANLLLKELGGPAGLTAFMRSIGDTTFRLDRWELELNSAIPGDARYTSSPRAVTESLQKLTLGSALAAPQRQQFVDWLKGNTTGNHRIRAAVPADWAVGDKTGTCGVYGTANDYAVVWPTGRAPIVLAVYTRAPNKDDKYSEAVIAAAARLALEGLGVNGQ

`NC(=O)[C@@H]1CC[C@@H]2CN1C(=O)N2OS(=O)(=O)O` [AVI, avibactam] showed a t1/2 (KPC-2^D179Y [1]) of 205 ± 10 min, a t1/2 (KPC-2^V240G [2]) of 21.5 ± 0.06 min and a t1/2 (KPC-2^D179Y/T243M [3]) of 198 ± 8 min. The t1/2 (KPC-3 WT [4]) was 10.1 ± 0.1 min, the t1/2 (KPC-2 WT [5]) was 21.4 ± 0.07 min and the t1/2 (KPC-3^D179Y [6]) was 12.8 ± 0.9 min. For the same molecule, the t1/2 (KPC-3^D179Y/T243M [7]) was 22.5 ± 3.5 min and the t1/2 (KPC-3^V240G [8]) was 10.7 ± 0.1 min.

Molecule `CC(C)(O/N=C(\C(=O)N[C@@H]1C(=O)N2C(C(=O)[O-])=C(C[n+]3ccccc3)CS[C@H]12)c1csc(N)n1)C(=O)O` [CAZ, ceftazidime] has an MIC [9] of 0.5 µg/mL (≈ 0.915 µM), an MIC [10] of over 256 µg/mL and an MIC [11] of over 256 µg/mL. For the same molecule, the MIC [12] was over 256 µg/mL, the MIC [13] was over 256 µg/mL and the MIC [14] was over 256 µg/mL. For the same molecule, the MIC [15] was 256 µg/mL (≈ 468 µM), the MIC [16] was over 256 µg/mL and the MIC [17] was over 256 µg/mL. For the same molecule, the MIC [18] was 64 µg/mL (≈ 117 µM).

Molecule `O=C(Cc1cccs1)N[C@@H]1C(=O)N2C(C(=O)O)=C(CSc3ccc([N+](=O)[O-])c(C(=O)O)c3)CS[C@H]12` [CENTA] has a Km (KPC-2^V240G [19]) of 63.3 ± 2.3 µM, a kcat (KPC-2^V240G [19]) of 662 ± 9.6 s⁻¹ and a Km (KPC-2^D179Y [20]) of 1.9 ± 0.2 µM. The kcat (KPC-2^D179Y [20]) was “(1.2 ± 0.08) × 10^−2 s^−1”, the Km (KPC-3^D179Y [21]) was 124 ± 17 µM and the kcat (KPC-3^D179Y [21]) was 0.24 ± 0.02 s⁻¹. For the same molecule, the Km (KPC-2^D179Y/T243M [22]) was 2.1 ± 0.3 µM, the kcat (KPC-2^D179Y/T243M [22]) was “(0.9 ± 0.04) × 10^−2 s^−1” and the Km (KPC-3^V240G [23]) was 54.8 ± 8.3 µM. For the same molecule, the kcat (KPC-3^V240G [23]) was 12.7 ± 1.1 s⁻¹, the Km (KPC-3 WT [24]) was 105 ± 24 µM and the kcat (KPC-3 WT [24]) was 38 ± 3.4 s⁻¹. It also gave a kcat (KPC-2 WT [25]) of 243 ± 11 s⁻¹, a Km (KPC-2 WT [25]; PBS pH 7.4) of 19.7 ± 1.3 µM and a Km (KPC-3^D179Y/T243M [26]) of 153 ± 25 µM. The kcat (KPC-3^D179Y/T243M [26]) was 0.18 ± 0.02 s⁻¹.
